Legend:
[1] = molecular target: T1, Phosphatidylinositol 4,5-bisphosphate 3-kinase catalytic subunit delta isoform (Homo sapiens, UniProt O00329)
T1 sequence (O00329 whole entry): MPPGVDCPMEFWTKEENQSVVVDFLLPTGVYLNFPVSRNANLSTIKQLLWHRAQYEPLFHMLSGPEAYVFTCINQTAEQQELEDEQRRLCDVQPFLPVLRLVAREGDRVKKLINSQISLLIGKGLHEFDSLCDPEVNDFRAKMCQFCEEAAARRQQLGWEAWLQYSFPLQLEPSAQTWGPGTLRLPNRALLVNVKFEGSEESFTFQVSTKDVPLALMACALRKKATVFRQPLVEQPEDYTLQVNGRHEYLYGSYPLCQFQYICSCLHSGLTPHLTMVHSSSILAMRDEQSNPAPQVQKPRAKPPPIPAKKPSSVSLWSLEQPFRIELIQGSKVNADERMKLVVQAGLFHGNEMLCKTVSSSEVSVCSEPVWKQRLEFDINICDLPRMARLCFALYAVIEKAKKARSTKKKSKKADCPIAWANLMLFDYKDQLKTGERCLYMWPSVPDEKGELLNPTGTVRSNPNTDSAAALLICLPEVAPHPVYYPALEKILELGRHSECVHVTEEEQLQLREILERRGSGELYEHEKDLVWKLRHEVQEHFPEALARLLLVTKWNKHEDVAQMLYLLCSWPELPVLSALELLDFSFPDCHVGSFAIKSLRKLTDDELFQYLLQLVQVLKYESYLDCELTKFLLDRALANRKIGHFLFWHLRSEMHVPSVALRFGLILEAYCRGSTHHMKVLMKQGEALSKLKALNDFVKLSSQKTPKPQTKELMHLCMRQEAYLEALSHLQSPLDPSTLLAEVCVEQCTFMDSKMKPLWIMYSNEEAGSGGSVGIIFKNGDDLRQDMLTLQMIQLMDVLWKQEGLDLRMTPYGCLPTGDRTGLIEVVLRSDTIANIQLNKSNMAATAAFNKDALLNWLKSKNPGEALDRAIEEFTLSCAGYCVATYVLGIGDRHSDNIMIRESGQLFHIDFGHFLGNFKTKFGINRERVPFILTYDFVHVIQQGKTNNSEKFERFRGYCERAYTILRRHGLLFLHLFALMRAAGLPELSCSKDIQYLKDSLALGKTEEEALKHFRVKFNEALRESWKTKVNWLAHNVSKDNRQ

Mus musculus [2] = test: Antiarthritic activity in DBA/1 mouse model of collagen-induced arthritis assessed as reduction in anti-collagen IgG titres at 1 mg/kg/day, po pretreated for 2 hrs followed by first collagen injection measured after second collagen injection on day 21 by ELISA relative to control; type: functional; parameters: scale not given: the % may be the effect or the level left
Mus musculus [3] = test: Antiarthritic activity in DBA/1 mouse model of collagen-induced arthritis assessed as reduction in clinical arthritic scores at 1 mg/kg/day, po pretreated for 2 hrs followed by first collagen injection measured after second collagen injection on day 21 relative to control; type: functional; parameters: scale not given: the % may be the effect or the level left
[4] = AUC in mouse at 30 mg/kg, po; type: ADME, organism-based; settings: in vivo
[5] = Cmax in mouse at 30 mg/kg, po; type: ADME, organism-based; parameters: dose 30 mg/kg, route oral; settings: in vivo
Mus musculus [6] = test: Antiarthritic activity in DBA/1 mouse model of collagen-induced arthritis assessed as reduction in anti-collagen IgG titres at 100 mg/kg, po pretreated for 2 hrs followed by first collagen injection measured after second collagen injection on day 21 by ELISA relative to control; type: functional; parameters: scale not given: the % may be the effect or the level left
[7] = Volume of distribution in mouse; type: ADME, organism-based; settings: in vivo
[8] = Stability in mouse liver microsomes assessed as parent compound remaining at 0.5 uM after 10 mins by high throughput assay; type: ADME, Microsome; settings: read-out: Stability
[9] = Clearance in mouse; type: ADME, organism-based; settings: in vivo
[10] = Half life in mouse; type: ADME, organism-based; settings: in vivo
Mus musculus [11] = test: Antiarthritic activity in DBA/1 mouse model of collagen-induced arthritis assessed as reduction in clinical arthritic scores at 100 mg/kg, po pretreated for 2 hrs followed by first collagen injection measured after second collagen injection on day 21 relative to control; type: functional; parameters: scale not given: the % may be the effect or the level left
[12] = Oral bioavailability in mouse; type: ADME, organism-based; settings: in vivo
B cell = test: Antiproliferative activity against human B cells by thymidine incorporation assay; type: functional, cell-based
[13] = molecular target: T1, Phosphatidylinositol 4,5-bisphosphate 3-kinase catalytic subunit delta isoform; test: Inhibition of PI3Kdelta in BCR-stimulated human B cells assessed as suppression of CD86 expression after 18 hrs by FACS analysis
[14] = Stability in rat liver microsomes assessed as parent compound remaining at 0.5 uM after 10 mins by high throughput assay; type: ADME, Microsome; settings: read-out: Stability
Cytochrome P450 = test: Inhibition of Cytochrome P450 (unknown origin); type: ADME, protein assay; settings: human

SMILES: Nc1ncnn2c(-c3cccc(S(N)(=O)=O)c3)cc(-c3ccnn3C3CCCCC3)c12
- IC50 [1]: 0.014 µM

SMILES: CC(C)Cn1nccc1-c1cc(-c2cccnc2)n2ncnc(N)c12
- IC50 [1]: 0.252 µM

SMILES: Nc1ncnn2c(-c3cccnc3)cc(-c3ccnn3C3CCCC3)c12
- IC50 [1]: 0.029 µM

SMILES: Nc1ncnn2c(-c3cccc(CO)c3)cc(-c3ccnn3C3CCCCC3)c12
- IC50 [1]: 0.027 µM

SMILES: CN(Cc1cnc2nc(N)nc(N)c2n1)c1ccc(C(=O)N[C@@H](CCC(=O)O)C(=O)O)cc1 [METHOTREXATE]
- Activity (Mus musculus [2]): 63%
- Activity (Mus musculus [3]): 83%

SMILES: CN(C)C(C)(C)c1cccc(-c2cc(-c3ccnn3C3CCOCC3)c3c(N)ncnn23)c1
- AUC [4]: 6.23 µM·h
- Cmax [5]: 2890 nM
- Activity (Mus musculus [6]): 80%
- Vd [7]: 6.2 L/kg
- remaining at 10 min, 0.5 µM [8]: 58%
- clearance [9]: 82.1 mL/min/kg
- half-life [10]: 1 h
- Activity (Mus musculus [11]): 100%
- bioavailability [12]: 46%
- IC50 (B cell): 0.006 µM

SMILES: CN1CCN(Cc2cccc(-c3cc(-c4ccnn4C4CCOCC4)c4c(N)ncnn34)c2)CC1
- IC50 [13]: 0.721 µM
- remaining at 10 min, 0.5 µM [8]: 100%
- IC50 (B cell): 0.028 µM
- IC50 [1]: 0.004 µM

SMILES: CN(C)C1(c2cccc(-c3cc(-c4ccnn4C4CCOCC4)c4c(N)ncnn34)c2)COC1
- remaining at 10 min, 0.5 µM [8]: 70%
- IC50 (B cell): 0.009 µM

SMILES: Cn1cc(-c2cc(-c3ccnn3C3CCCCC3)c3c(N)ncnn23)cn1
- IC50 [1]: 0.011 µM

SMILES: CC(C)[C@H]1COC(=O)N1Cc1cccc(-c2cc(-c3ccnn3C3CCOCC3)c3c(N)ncnn23)c1
- remaining at 10 min, 0.5 µM [8]: 0.09%

SMILES: CN1CCC(n2nccc2-c2cc(-c3cccnc3)n3ncnc(N)c23)CC1
- IC50 [1]: 0.15 µM

SMILES: Nc1ncnn2c(-c3ccncc3)cc(-c3ccnn3C3CCCCC3)c12
- remaining at 10 min, 0.5 µM [14]: 46%
- remaining at 10 min, 0.5 µM [8]: 16%
- IC50 [1]: 0.022 µM

SMILES: Nc1ncnn2c(-c3cccc(C(=O)N4CCCC4)c3)cc(-c3ccnn3C3CCCCC3)c12
- IC50 [13]: 0.036 µM
- IC50 [1]: 0.002 µM

SMILES: NCc1ccc(-c2cc(-c3ccnn3C3CCCCC3)c3c(N)ncnn23)cc1
- IC50 [1]: 0.026 µM

SMILES: Nc1ncnn2c(-c3cccc(CN4CCCC4=O)c3)cc(-c3ccnn3C3CCOCC3)c12
- remaining at 10 min, 0.5 µM [8]: 19%
- IC50 (B cell): 0.035 µM

SMILES: CS(=O)(=O)NCc1cccc(-c2cc(-c3ccnn3C3CCOCC3)c3c(N)ncnn23)c1
- IC50 (B cell): 0.099 µM

SMILES: CC(C)C(=O)N1C[C@H](O)C[C@H]1c1cccc(-c2cc(-c3ccnn3C3CCOCC3)c3c(N)ncnn23)c1
- IC50 [13]: 0.11 µM
- remaining at 10 min, 0.5 µM [8]: 4%
- IC50 (B cell): 0.008 µM
- IC50 [1]: 0.001 µM

SMILES: Nc1ncnn2c(-c3cccnc3)cc(-c3ccnn3C3CCCCCC3)c12
- IC50 [1]: 0.231 µM

SMILES: Nc1ncnn2c(-c3ccccc3)cc(-c3ccnn3C3CCCCC3)c12
- IC50 [1]: 0.576 µM

SMILES: CN(C)c1cccc(-c2cc(-c3ccnn3C3CCCCC3)c3c(N)ncnn23)c1
- IC50 [13]: 0.016 µM
- IC50 [1]: 0.003 µM

SMILES: Nc1ncnn2c(-c3cccc(C4(N5CCOCC5)COC4)c3)cc(-c3ccnn3C3CCOCC3)c12
- remaining at 10 min, 0.5 µM [8]: 6%
- IC50 (B cell): 0.001 µM

SMILES: Nc1ncnn2c(-c3ccc(CO)cc3)cc(-c3ccnn3C3CCCCC3)c12
- IC50 [1]: 0.031 µM

SMILES: Nc1ncnn2c(-c3cccnc3)cc(-c3ccnn3C3CCCCC3)c12
- inhibition (INH) (Cytochrome P450): Not Active
- IC50 [1]: 0.022 µM

SMILES: Nc1ncnn2c(-c3cccnc3)cc(-c3ccnn3C3CCOCC3)c12
- IC50 [1]: 0.042 µM

SMILES: Nc1ncnn2ccc(-c3ccnn3C3CCCCC3)c12
- IC50 [1]: 0.405 µM

SMILES: Nc1ncnn2c(-c3cccnc3)cc(-c3ccnn3C3CCS(=O)(=O)CC3)c12
- IC50 [1]: 0.163 µM

SMILES: CC1(C)OC(=O)NC1c1cccc(-c2cc(-c3ccnn3C3CCOCC3)c3c(N)ncnn23)c1 (centres undefined)
- remaining at 10 min, 0.5 µM [8]: 45%
- IC50 (B cell): 0.031 µM

SMILES: CN1C[C@H](O)C[C@@H]1c1cccc(-c2cc(-c3ccnn3C3CCOCC3)c3c(N)ncnn23)c1
- remaining at 10 min, 0.5 µM [8]: 65%
- IC50 (B cell): 0.087 µM
